Among the data in patent publication US12545685B2 (Daiichi Sankyo Company, Limited, priority 2011, dated 2026) are IC50 values, retold here.

The target of the test is T1, Mdm2/p53 binding (GST-Mdm2 / His-p53) (Homo sapiens, UniProt Q00987, L33E).
T1 construct: Mdm2 partial protein having Mdm2 amino acids at positions 25 to 108
T1 sequence (Q00987 25-108 L33E): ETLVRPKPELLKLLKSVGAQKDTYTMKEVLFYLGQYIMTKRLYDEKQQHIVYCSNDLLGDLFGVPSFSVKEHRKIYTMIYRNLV
The experiment in a line: Mdm2/p53 binding assay (HTRF, His-p53 and GST-Mdm2). The conditions noted are these: His-p53 (aa 1-132) and GST-Mdm2 (aa 25-108, L33E) 6.25 nM each; 25°C, 1 hour; values given as ranges. Here is the method:
A protein dilution containing 6.25 nM each of His-p53 (fusion protein of a p53 partial protein having p53 amino acids at positions 1 to 132, with a histidine protein) and GST-Mdm2 (fusion protein of an Mdm2 partial protein having Mdm2 amino acids at positions 25 to 108 with leucine residue 33 substituted by glutamic acid, with glutathione transferase) proteins was prepared using a protein buffer solution (20 mM HEPES pH 7.4, 150 mM NaCl, 0.1% BSA). This protein dilution was added in an amount of 8 μl/well to a 384-well plate (384-well low volume NBC, Corning Inc., catalog No: 3676).
Next, a test compound was diluted with DMSO to produce a protein buffer solution containing 10% dilution, and this buffer solution was added in an amount of 4 μl/well to the plate.
Subsequently, a solution containing an XL665-labeled anti-His antibody (HTRF monoclonal anti-6HIS antibody labeled with XL665 (catalog No: 61HISXLB), Schering/Cisbio Bioassays) and a europium (Eu)-labeled anti-GST antibody (HTRF monoclonal anti-GST antibody labeled with europium cryptate, Schering/Cisbio Bioassays, catalog No: 61GSTKLB) at concentrations of 2.5 μg/ml and 0.325 μg/ml, respectively, was prepared using an antibody diluting buffer solution (20 mM HEPES pH 7.4, 150 mM NaCl, 0.1% BSA, 0.5 M KF). These dilutions were added in an amount of 8 μl/well (total reaction solution volume: 20 μl/well). Then the plate was incubated at 25° ° C. for 1 hour.
Time-resolved fluorescence at 620 and 665 nm was measured at an excitation wavelength of 320 nm using a plate reader (ARVOsx, PerkinElmer Co., Ltd. or PHERAstar, BMG LABTECH). Ratio (R) was calculated using the measured values (RFU 620 nm and RFU 665 nm) according to the following formula: […]
BI: measured value at 665 nm of reaction solution (only each buffer solution) nonsupplemented with each protein, the compound, and the antibodies
A and D: each measured value at 665 nm and 620 nm of reaction solution supplemented with only Eu-labeled anti-GST antibody solution
The R value calculated from the well supplemented with His-p53, GST-Mdm2, the test compound, and each antibody was defined as R (sample). The R value calculated from the well supplemented with His-p53, GST-Mdm2, and each antibody but without the test compound was defined as R (control). The R value calculated from the well supplemented with GST-Mdm2 the test compound, and each antibody but without His-p53 was defined as R (background). T/C was calculated from the formula shown below. An IC50 value for Mdm2/p53 binding was calculated by sigmoid fitting.
Turning to `CC1(C)CCC2(CC1)N[C@@H](C(=O)N[C@H]1CC[C@H](N3CC(O)C3)CC1)[C@H](c1cccc(Cl)c1F)[C@]21C(=O)Nc2cc(Cl)ccc21` (relative stereo) [Example 12, (3′R, 4′S,5′R)-6″-chloro-4′-(3-chloro-2-fluorophenyl)-N-[trans-4-(3-hydroxyazetidin-1-yl)cyclohexyl]-4,4-dimethyl-2″-oxo-1″,2″-dihydrodispiro[cyclohexane-1,2′-pyrrolidine-3′,3″-indole]-5′-carboxamide], the IC50 lay within 1 to 50 nM.
Compound `CNC(=O)c1cc(Cl)cc([C@H]2[C@H](C(=O)N[C@H]3CC[C@H](O)CC3)NC3(CCC(C)(C)CC3)[C@@]23C(=O)Nc2cc(Cl)ccc23)c1` (relative stereo) [Example 21, (3′R, 4′R, 5′R)-6″-chloro-4′-[3-chloro-5-(methylcarbamoyl)phenyl]-N-(trans-4-hydroxycyclohexyl)-4,4-dimethyl-2″-oxo-1″,2″-dihydrodispiro[cyclohexane-1,2′-pyrrolidine-3′,3″-indole]-5′-carboxamide] showed an IC50 of 1 to 50 nM.
Then `CC1(C)CCC2(CC1)N[C@@H](C(=O)N[C@H]1CC[C@H](O)CC1)[C@H](c1cc(N)cc(Cl)c1)[C@]21C(=O)Nc2cc(Cl)ccc21` (relative stereo) [Example 36, (3′R, 4′R, 5′R)-4′-(3-amino-5-chlorophenyl)-6″-chloro-N-(trans-4-hydroxycyclohexyl)-4,4-dimethyl-2″-oxo-1″,2″-dihydrodispiro[cyclohexane-1,2′-pyrrolidine-3′,3″-indole]-5′-carboxamide], with 1 to 50 nM; and `CC1(C)CCC2(CC1)N[C@@H](C(=O)N[C@H]1CC[C@H](c3noc(=O)[nH]3)CC1)[C@H](c1cccc(Cl)c1F)[C@]21C(=O)Nc2nc(Cl)ccc21` (relative stereo) [Example 49, (3′R, 4′S,5′R)-6″-chloro-4′-(3-chloro-2-fluorophenyl)-4,4-dimethyl-2″-oxo-N-[trans-4-(5-oxo-4,5-dihydro-1,2,4-oxadiazol-3-yl)cyclohexyl]-1″,2″-dihydrodispiro[cyclohexane-1,2′-pyrrolidine-3′,3″-pyrrolo[2,3-b]pyridine]-5′-carboxamide], with 1 to 50 nM; and `O=C(N[C@H]1CC[C@H](O)CC1)[C@@H]1NC2(CC(CF)(CF)C2)[C@@]2(C(=O)Nc3cc(Cl)ccc32)[C@H]1c1cccc(Cl)c1F` (relative stereo) [Example 121, (3′R, 4′S,5′R)-6″-chloro-4′-(3-chloro-2-fluorophenyl)-3,3-bis(fluoromethyl)-N-(trans-4-hydroxycyclohexyl)-2″-oxo-1″,2″-dihydrodispiro[cyclobutane-1,2′-pyrrolidine-3′,3″-indole]-5′-carboxamide], with 50 to 100 nM.
The compound `CN(C)C(=O)[C@H]1CC[C@H](NC(=O)[C@@H]2NC3(CC(CF)(CF)C3)[C@@]3(C(=O)Nc4cc(Cl)ccc43)[C@H]2c2cc(F)cc(Cl)c2)CC1` (relative stereo) [Example 168, (3′R, 4′R, 5′R)-6″-chloro-4′-(3-chloro-5-fluorophenyl)-N-[trans-4-(dimethylcarbamoyl)cyclohexyl]-3,3-bis(fluoromethyl)-2″-oxo-1″,2″-dihydrodispiro[cyclobutane-1,2′-pyrrolidine-3′,3″-indole]-5′-carboxamide] came in with an IC50 of 100 to 500 nM.
Then `CC1(C)CCC2(CC1)N[C@@H](C(=O)N[C@H]1CC[C@H](c3nnco3)CC1)[C@H](c1ccnc(Cl)c1F)[C@]21C(=O)Nc2cc(Cl)ncc21` (relative stereo) [Example 190], with 50 to 100 nM; and `CC(O)[C@@H]1CC[C@@H](NC(=O)[C@@H]2NC3(CCC(C)(C)CC3)[C@@]3(C(=O)Nc4nc(Cl)ccc43)[C@H]2c2ccnc(Cl)c2F)CO1` (single isomer, unassigned) [Example 75], with 1 to 50 nM; and `CC1(C)CCC2(CC1)N[C@@H](C(=O)N[C@H]1CO[C@H](CO)C(C)(O)C1)[C@H](c1ccnc(Cl)c1F)[C@]21C(=O)Nc2cc(Cl)ccc21` (single isomer, unassigned) [Example 85], with 1 to 50 nM.
The value for `CC1(C)CCC2(CC1)N[C@@H](C(=O)N[C@@H]1CC[C@@H](C(O)CO)OC1)[C@H](c1ccnc(Cl)c1F)[C@]21C(=O)Nc2cc(Cl)ccc21` (single isomer, unassigned) [Example 89] was 1 to 50 nM.
Then `CC(O)[C@@H]1CC[C@@H](NC(=O)[C@@H]2NC3(CC(CF)(CF)C3)[C@@]3(C(=O)Nc4cc(Cl)ccc43)[C@H]2c2cccc(Cl)c2F)CO1` (single isomer, unassigned) [Example 146], with 1 to 50 nM; and `CC(O)[C@@H]1CC[C@@H](NC(=O)[C@@H]2NC3(CC(CF)(CF)C3)[C@@]3(C(=O)Nc4cc(Cl)ccc43)[C@H]2c2cccc(Cl)c2F)CO1` (single isomer, unassigned) [Example 147], with 50 to 100 nM.
`CC1(C)CCC2(CC1)N[C@@H](C(=O)N[C@@H]1CC[C@@H](C(C)(C)O)OC1)[C@H](c1ccnc(Cl)c1)[C@]21C(=O)Nc2cc(Cl)ccc21` [Example 10, (3′R, 4′R, 5′R)-6″-chloro-4′-(2-chloropyridin-4-yl)-N-[(3R,6S)-6-(1-hydroxy-1-methylethyl)tetrahydro-2H-pyran-3-yl]-4,4-dimethyl-2″-oxo-1″,2″-dihydrodispiro[cyclohexane-1,2′-pyrrolidine-3′,3″-indole]-5′-carboxamide] showed a concentration for half-maximal inhibition (IC50) of 50 to 100 nM.
In turn, `CC1(C)CCC2(CC1)N[C@@H](C(=O)N[C@H]1CC[C@H](O)CC1)[C@H](c1cccc(Cl)c1F)[C@]21C(=O)Nc2cc(C#N)ccc21` [Example 15, (3′R, 4′S,5′R)-4′-(3-chloro-2-fluorophenyl)-6″-cyano-N-(trans-4-hydroxycyclohexyl)-4,4-dimethyl-2″-oxo-1″,2″-dihydrodispiro[cyclohexane-1,2′-pyrrolidine-3′,3″-indole]-5%-carboxamide] returned a half-maximal inhibitory concentration (IC50) of 50 to 100 nM.
Then `CC1(C)CCC2(CC1)N[C@@H](C(=O)N[C@@H]1C=C[C@@H](CO)OC1)[C@H](c1cccc(Cl)c1F)[C@]21C(=O)Nc2cc(Cl)ccc21` [Example 19, (3′R,4′S,5′R)-6″-chloro-4′-(3-chloro-2-fluorophenyl)-N-[(3R,6S)-6-(hydroxymethyl)-3,6-dihydro-2H-pyran-3-yl]-4,4-dimethyl-2″-oxo-1″,2″-dihydrodispiro[cyclohexane-1,2′-pyrrolidine-3′,3″-indole]-5′-carboxamide], with 50 to 100 nM.
Then `COC(=O)c1cc(Cl)cc([C@H]2[C@H](C(=O)N[C@@H]3CC[C@@H](CO)OC3)NC3(CCC(C)(C)CC3)[C@@]23C(=O)Nc2cc(Cl)ccc23)c1` [Example 22, 1,5-Anhydro-2-[({(3′R, 4′R, 5′R)-6″-chloro-4′-[3-chloro-5-(methoxycarbonyl)phenyl]-4,4-dimethyl-2″-oxo-1″,2″-dihydrodispiro[cyclohexane-1,2′-pyrrolidine-3′,3″-indole]-5′-yl}carbonyl)amino]-2,3,4-trideoxy-D-erythro-hexitol], with 50 to 100 nM; and `CNC(=O)c1cc(Cl)cc([C@H]2[C@H](C(=O)N[C@@H]3CC[C@@H](CO)OC3)NC3(CCC(C)(C)CC3)[C@@]23C(=O)Nc2cc(Cl)ccc23)c1` [Example 27, 2, 5˜Anhydro-2-[({(3′R, 4′R, 5′R)-6″-chloro-4′-[3-chloro-5-(methylcarbamoyl)phenyl]-4,4-dimethyl-2″-oxo-1″,2″-dihydrodispiro[cyclohexane-1,2′-pyrrolidine-3′,3″-indole]-5′-yl}carbonyl)amino]-2,3,4-trideoxy-D-erythro-hexitol], with 1 to 50 nM; and `CC1(C)CCC2(CC1)N[C@@H](C(=O)N[C@H]1CC[C@@](O)(CO)CC1)[C@H](c1cccc(Cl)c1F)[C@]21C(=O)Nc2cc(Cl)ccc21` [Example 33, (3′R, 4′S,5′R)-6″-chloro-4′-(3-chloro-2-fluorophenyl)-N-[trans-4-hydroxy-4-(hydroxymethyl)cyclohexyl]-4,4-dimethyl-2″-oxo-1″,2″-dihydrodispiro[cyclohexane-1,2′-pyrrolidine-3′,3″-indole]-5′-carboxamide], with 1 to 50 nM.
